Paper PMC7922534, “Searching for Peptide Inhibitors of T Regulatory Cell Activity by Targeting Specific Domains of FOXP3 Transcription Factor” (Biomedicines, 2021)

Tests used:
[1] = tested on: murine CD4+CD25+ Treg cells; experiment: In vitro Treg inhibition: anti-CD3 stimulated effector T cells co-cultured with Treg cells, tritiated thymidine incorporation; format: cell-based, mouse; conditions: peptide 50 μM; for Treg inhibitory capacity in vitro (proliferation of effector T cells with anti-CD3 in presence of Treg): BALB/c Teff 10^5 + Treg 10^4 cells/well, 3 days, tritiated thymidine; for toxicity in Teff&Treg co-cultures: cpm below cpm of Teff&Treg co-cultures without peptide
Protocol: (§1) In vitro assays were carried out using (i) the Karpas 299 human cell line (ACC-31, DSMZ, Germany), derived from a human lymphoma with a regulatory T cell profile or (ii) using natural Treg cells isolated from the murine splenocytes. To evaluate the effect of peptides on the immunosuppressive activity of the Karpas 299 cell line, a “mixed lymphocyte reaction” (MLR) assay was carried out using peripheral blood mononuclear cells (PBMCs) from two donors (previously tested to induce a strong MLR reaction in co-culture) (1 × 10^5 cells/well per each PBMC) in the presence or absence of Karpas 299 (1 × 10^4 cells/well). Peptides were added at 50 μM to the co-cultures to evaluate their capacity to restore the production of interferon-gamma (IFN-γ) inhibited by Karpas 299. After 48 hours, the supernatants were extracted to measure interferon-gamma (IFN-γ) by means of a commercial ELISA (Pharmingen, San Diego, CA, US). In vitro assays for Treg inhibition using natural Treg cells: Murine CD4+CD25+ (Treg cells), and CD4+CD25-T-cells (effector T cells) were purified from murine spleen cells by using a murine regulatory T-cell isolation kit (Miltenyi Biotec, Bergisch Gladbach, Germany) according to the manufacturer’s instructions. The purity of the resulting T-cell populations was confirmed to be >95% by flow cytometry. Inhibition of murine T regulatory cell function was measured in an in vitro assay of T-cell stimulation. Effector T cells (10^5 cells/well) from BALB/c mice were stimulated in vitro with 2, 5 μg/mL of anti-mouse CD3 antibody (Pharmingen) in the presence/absence of purified Treg cells (10^4 cells/well) and the indicated peptides (50 μM). T-cell proliferation was measured 3 days later as previously described. Percentage of Treg inhibition was calculated using the following formula: % inhibition= 100*((cpm of Teff&Treg co-cultures in the presence of peptide - cpm of Teff&Treg co-cultures)/(cpm of Teff - cpm of Teff&Treg co-cultures)). The Institutional Review Board on Human Subjects (Clínica Universidad de Navarra, Ref 2016.118) approved this research, and informed consent was obtained from all blood donors.

[2] = tested on: Karpas 299 human cell line; experiment: Mixed lymphocyte reaction with Karpas 299 Treg cell line, IFN-γ by ELISA; format: cell-based; conditions: MLR of PBMCs from two donors + Karpas 299, peptide 50 μM, 48 h
Protocol: as §1

4T1-FOXP3 cells = experiment: Proliferation of 4T1-Ctrl and 4T1-FOXP3 tumor cells in vitro; format: cell-based; conditions: peptide 50 μM, Figure 2C
Protocol: The cell line 4T1-FOXP3 expressing FOXP3 was generated. 4T1-WT cells were transfected with empty pcDNA3.1 or with pcDNA3.1 FOXP3, expressing FOXP3 gene and neomycin (which confers resistance to G418 antibiotic) to generate 4T1-Ctrl and 4T1-Foxp3 cells. Briefly, 8 × 10^5 cells were seeded in 6-well culture plates one day prior to transfection. The cultures were 60–80% confluent at the time of transfection. Cells were transfected with 5 ug plasmid DNA per well for 6 hours using lipofectimine 2000 transfection reagent (Invitrogen). After 48 hours, 0.3 mg/mL of G418 drug (GIBCO) was added to the culture during 14 days for the selection of resistant cells. These cells were used in vitro to measure the effect of peptides to overcome the proliferative capacity inhibited by FOXP3. In addition, 4T1-FOXP3 and 4T1-Ctrl cells were injected in vivo (10^5 cells/ mouse) subcutaneously or intravenously to compare their capacity to induce tumors and lung metastases. Murine Lewis lung carcinoma expressing OVA, LLCOVA were kindly provided by Dr. Daniel Ajona (CIMA). The murine colon adenocarcinoma cell line MC38, LLOOVA, 4T1-Ctrl, and 4T1-FOXP3 were cultured in mouse medium (RPMI 1640, 10% fetal calf serum (Sigma), 100 U/mL penicillin, 100 μg/mL streptomycin (Invitrogene), […] Gentamicin (Gibco), 2 mM L-Glutamine (Lifetechnologies), […] β-mercaptoethanol (Sigma), and fungizone (GIBCO). All cell lines were cultured at 37 °C in a humidified atmosphere with 6.5% CO2.

FOXP3 = experiment: Surface plasmon resonance binding of peptides to a chip coated with FOXP3; conditions: peptide 10 μM; Figure 4A
Protocol: (§2) The screening of peptide binders to FOXP3 was performed by surface plasmon resonance (SPR) using a ProteOn XPR36 (Bio-Rad, Hercules CA, USA) optical biosensor. Recombinant protein FOXP3-6His produced and purified from E-coli was immobilized covalently onto a GLC sensor chip (Bio-Rad) using the coupling reagents sulfo-NHS (N-Hydroxysulfosuccinimide) and EDC (1-Ethyl-3-(3-dimethylaminopropyl) carbodiimide, (Bio-Rad) as previously described. Peptide solutions (10 μM) were injected by triplicate in running buffer (phosphate-buffered saline, 0.005% (v/v) Tween 20, pH 7.4) at a flow of 30 μL/min. The interspot signal (obtained in the chip surface not immobilized with protein) was used as reference. FOXP3/NFAT1 and FOXP3/AML1 interactions were analyzed by Alphascreen technology as previously described according to the manufacturer’s protocol (Perkin Elmer, Benelux). Reactions were performed in a 40 μL final volume in 96-well Optiwell microtiter plates (Perkin Elmer). The reaction buffer contained 20 mM HEPES (4-(2-hydroxyethyl)-1-piperazineethanesulfonic acid), pH 7.9, 200 mM KCl, 1 mM MgCl2 and 0.05% bovine serum albumin (BSA). Recombinant NFAT1 expressed with a hexa-Histidine tag was captured by nickel chelate acceptor beads, whereas recombinant FOXP3 expressed with a GST (glutathione S-transferase) tag was captured by glutathione donor beads (Perkin Elmer). For FOXP3 dimerization assays, GST-tagged FOXP3 and His-tagged FOXP3 were co-cultured in the presence or absence of the indicated peptides for 1 h. Then, donor and acceptor beads were added as described above and incubated for 2 h. FOXP3/AML1 interaction was measured following a similar protocol using FOXP3-GST and AML1-His proteins. Exposure of the reaction to direct light was avoided as much as possible, and the emission of light from the acceptor beads was measured in the EnVision plate reader after the indicated incubation period (Perkin Elmer, Benelux).

[3] = tested on: murine CD4+CD25+ Treg cells; experiment: In vitro Treg inhibition: anti-CD3 stimulated effector T cells co-cultured with Treg cells, tritiated thymidine incorporation; format: cell-based, mouse; conditions: peptide 10 μM (not shown)
FOXP3/NFAT1 = experiment: FOXP3/NFAT interaction by Alphascreen; format: binding; conditions: alpha screen; Figure 6C
Protocol: as §2, with “The reaction buffer contained 20 mM HEPES (4-(2-hydroxyethyl)-1-piperazineethanesulfonic acid), pH 7.9, 200 mM KCl, 1 mM MgCl2 and 0.05% bovine serum albumin (BSA). Recombinant NFAT1 expressed with a hexa-Histidine tag was captured by nickel chelate acceptor beads, whereas recombinant FOXP3 expressed with a GST (glutathione S-transferase) tag was captured by glutathione donor beads (Perkin Elmer). For FOXP3 dimerization assays, GST-tagged FOXP3 and His-tagged FOXP3 were co-cultured in the presence or absence of the indicated peptides for 1 h. Then, donor and acceptor beads were added as described above and incubated for 2 h.” left out

FOXP3-6His = target: T1, FOXP3-6His (UniProt Q9BZS1-1 1-417); experiment: SPR; FOXP3-6His immobilised covalently on a GLC sensor chip (ProteOn XPR36); peptides 10 uM injected in triplicate; PBS, 0.005% Tween 20, pH 7.4; 30 uL/min; interspot signal as reference; conditions: both partners purified
T1 construct: FOXP3 (Forkhead box protein 3) transcription factor; also called His-tagged FOXP3
T1 sequence (looked up): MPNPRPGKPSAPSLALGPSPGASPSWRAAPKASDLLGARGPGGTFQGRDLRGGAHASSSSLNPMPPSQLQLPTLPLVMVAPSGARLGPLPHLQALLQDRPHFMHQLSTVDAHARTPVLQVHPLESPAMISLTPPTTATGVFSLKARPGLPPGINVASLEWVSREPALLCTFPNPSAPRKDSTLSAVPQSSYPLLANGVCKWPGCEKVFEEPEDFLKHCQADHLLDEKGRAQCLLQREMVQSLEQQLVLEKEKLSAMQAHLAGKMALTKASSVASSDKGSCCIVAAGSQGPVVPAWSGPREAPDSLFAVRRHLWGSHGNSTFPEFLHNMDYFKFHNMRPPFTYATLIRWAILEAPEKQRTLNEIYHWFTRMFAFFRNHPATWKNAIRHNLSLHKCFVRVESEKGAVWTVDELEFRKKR

## CGISYGRKKRRQRRR-KCFVRVESEKG [TAT-393–403, peptide F393–403 fused to the cell-penetrating peptide TAT (Tat 44–57)]
[1]
  Treg inhibitory capacity in vitro (proliferation of effector T cells with anti-CD3 in presence of Treg): significantly improved the Treg inhibitory capacity

## GGFSLHPWWRFNHDR [p65]
[2]
  Treg inhibitory capacity (Karpas MLR assays): potential Treg inhibitory capacity
4T1-FOXP3 cells
  effect on tumor-suppressor activity of FOXP3 (proliferation of 4T1-FOXP3 versus 4T1-Ctrl cells): able to inhibit the tumor-suppressor activity

## IRGLRFGPGFMWPTL [p50]
[2]
  Treg inhibitory capacity (Karpas MLR assays): potential Treg inhibitory capacity
4T1-FOXP3 cells
  effect on tumor-suppressor activity of FOXP3 (proliferation of 4T1-FOXP3 versus 4T1-Ctrl cells): able to inhibit the tumor-suppressor activity

## IYHWFTRMFAFFRNH [F363–377, 15-mer overlapping peptide from the FKH domain of FOXP3]
[1]
  toxicity in Teff&Treg co-cultures: some toxicity
FOXP3
  binding capacity to FOXP3 by SPR (FKH domain peptides): good binders to FOXP3
[3]
  Treg inhibitory capacity in vitro: did not exhibit Treg inhibitory capacity
  toxicity in Teff&Treg co-cultures: no toxicity was observed

## KCFVRVESEKGAVWT [F393–407, 15-mer overlapping peptide from the FKH domain of FOXP3]
[1]
  level of T-cell proliferation in presence of peptide versus anti-CD3 stimulated T-cells without Treg: surpassed the maximum proliferation of T-cells stimulated with anti-CD3 in the absence of Treg cells
  Treg inhibitory capacity in vitro (proliferation of effector T cells with anti-CD3 in presence of Treg): strong Treg inhibitory capacity

## NAIRHNLSLHKCFVR [F383–397, 15-mer overlapping peptide from the FKH domain of FOXP3]
FOXP3
  binding capacity to FOXP3 by SPR (FKH domain peptides): good binders to FOXP3

## NLSLHKCFVRVESEK [F388–402, 15-mer overlapping peptide from the FKH domain of FOXP3]
[1]
  Treg inhibitory capacity in vitro (proliferation of effector T cells with anti-CD3 in presence of Treg): strong Treg inhibitory capacity

## PATWKNAIRHNLSLH [F378–392, 15-mer overlapping peptide from the FKH domain of FOXP3]
FOXP3
  binding capacity to FOXP3 by SPR (FKH domain peptides): good binders to FOXP3

## RRIVSQLLHPLWSMP [p61]
[2]
  Treg inhibitory capacity (Karpas MLR assays): potential Treg inhibitory capacity

## RRQIHLVLPWRAVQS [p52]
[2]
  Treg inhibitory capacity (Karpas MLR assays): potential Treg inhibitory capacity
4T1-FOXP3 cells
  effect on tumor-suppressor activity of FOXP3 (proliferation of 4T1-FOXP3 versus 4T1-Ctrl cells): able to inhibit the tumor-suppressor activity

## RSRFFAPFAFLSSGL [p53]
[2]
  Treg inhibitory capacity (Karpas MLR assays): potential Treg inhibitory capacity

## RTLNEIYHWFTRMFA [F358–372, 15-mer overlapping peptide from the FKH domain of FOXP3]
[1]
  Treg inhibitory capacity in vitro (proliferation of effector T cells with anti-CD3 in presence of Treg): strong Treg inhibitory capacity

## RVESEKGAVW [397–406 L, linear version of peptide F397–406 from the FKH domain]
FOXP3/NFAT1
  disruption of FOXP3-NFAT heterodimerization: retained the activity to impair Foxp3/NFAT interaction

## TRMFAFFRNHPATWK [F368–382, 15-mer overlapping peptide from the FKH domain of FOXP3]
[1]
  toxicity in Teff&Treg co-cultures: some toxicity
FOXP3
  binding capacity to FOXP3 by SPR (FKH domain peptides): good binders to FOXP3
[3]
  Treg inhibitory capacity in vitro: did not exhibit Treg inhibitory capacity
  toxicity in Teff&Treg co-cultures: no toxicity was observed

## WAILEAPEKQRTLNE [F348–362, 15-mer overlapping peptide from the FKH domain of FOXP3]
[1]
  Treg inhibitory capacity in vitro (proliferation of effector T cells with anti-CD3 in presence of Treg): strong Treg inhibitory capacity

## RRQIHLVLPWRAVQS (source: synthetic peptide) [p52]
FOXP3-6His
  SPR response: > 500 RU

## RFWDYDLMLRVLRPL (source: synthetic peptide) [p59]
FOXP3-6His
  SPR response: > 500 RU

## IRGLRFGPGFMWPTL (source: synthetic peptide) [p50]
FOXP3-6His
  SPR response: > 500 RU

## GLRERMRLPFFVFGG (source: synthetic peptide) [p49]
FOXP3-6His
  SPR response: > 500 RU

## GMRFFPWLGVGFAMR (source: synthetic peptide) [p47]
FOXP3-6His
  SPR response: > 500 RU

## RDFQSFRKMWPFFAM (source: synthetic peptide) [p60]
FOXP3-6His
  SPR response: > 500 RU

## GGFSLHPWWRFNHDR (source: synthetic peptide) [p65]
FOXP3-6His
  SPR response: > 500 RU

## SSKSLAAPLGLFVVG (source: synthetic peptide) [p55]
FOXP3-6His
  SPR response: > 500 RU
